Measured values taken from patent US11912569B2, “Method for manufacturing chlorous acid water using raw material obtained by salt electrolysis” (HONBUSANKEI CO., LTD., priority 2016, dated 2024).
Read-outs that look alike come from different tables or passages of the source.

Legend:
E. coli [1] = type: cell-based
Procedure: The following samples were prepared to measure the oxidation capability: sodium hypochlorite converted concentration and phenol coefficient for each of the chlorine oxides.
These samples were used to measure the oxidation capability: sodium hypochlorite converted concentration and phenol coefficient while appropriately dilution with ion exchange water.
The following sample was prepared. The oxidation capability and phenol coefficient were measured immediately after manufacture and on day 5.
They were compared based on dissolved chlorine dioxide as the control.

E. coli [2] = assay: Phenol coefficient method; type: cell-based
Procedure: The following is the operation method thereof.
5% phenol solution: Phenol is dissolved with hot water of about 70° C. 25 mL is measured out and precisely diluted to 500 mL with water (40° C.). The specific gravity at 20° C. is confirmed to be within the range of 1.000±0.005.
Liquid medium (1 L volume): 18.0 g of normal broth medium is added to 1 L of water in a 1000 mL Erlenmeyer flask with a stopper. They are mixed and dissolved for about 30 minutes at normal temperature.
Liquid medium (volume of 200 mL): about 18.0 g of normal broth medium is added to 1 L of water. They were mixed and dissolved for about 30 minutes at normal temperature.
Liquid medium (test tube): about 18.0 g of normal broth medium is added to 1 L of water. […]
The inoculated test tube is placed in a vortex mixer and sealed, and incubated for 24 hours at 37° C. Test segments observed to have opacity after incubation are recorded as “+” and test segments without opacity are recorded as “−”. However, a cotton swab is immersed in the liquid medium of the test segments evaluated as “+”, and the medium is smeared onto a desoxycholate medium (flat plate) from the center to the outside so as to draw a straight line. […]
After culturing for a predetermined time, samples observed to have a typical red colony where the medium was smeared are evaluated as “+”, and samples with no observed red colony is evaluated as “−”. […]

Molecule | Oxidation capability: sodium hypochlorite converted concentration at each phenol coefficient (E. coli [1]; phenol coefficient 0) | Oxidation capability: sodium hypochlorite converted concentration at each phenol coefficient (E. coli [1]; phenol coefficient 1) | Oxidation capability: sodium hypochlorite converted concentration at each phenol coefficient (E. coli [1]; phenol coefficient 2) | Oxidation capability: sodium hypochlorite converted concentration at each phenol coefficient (E. coli [1]; phenol coefficient 3) | Oxidation capability: sodium hypochlorite converted concentration at each phenol coefficient (E. coli [1]; phenol coefficient 5) | Oxidation capability: sodium hypochlorite converted concentration at each phenol coefficient (E. coli [1]; phenol coefficient 10) | Oxidation capability: sodium hypochlorite converted concentration at each phenol coefficient (E. coli [1]; phenol coefficient 15) | Oxidation capability: sodium hypochlorite converted concentration at each phenol coefficient (E. coli [1]; phenol coefficient 25) | phenol coefficient (E. coli [2]; available chlorine concentration of 25% (w/v), saturation concentration) | phenol coefficient per oxidation capability (100) (E. coli [2]; phenol coefficient divided by oxidation capability and multiplied by 100, from the values of Example 1)
[O][Cl+][O-] [Dissolved chlorine dioxide] | 0 | 139 | 279 | 418 | 697 | 1395 | 2092 | 3487 | – | –
sodium chlorite | 0 | nonexistent | nonexistent | nonexistent | nonexistent | nonexistent | nonexistent | nonexistent | 0 | 0
